Source: article PMC4658230 (Toxicology, 2015)
Where two headings read alike, the source gives them in different places.

Key:
mtCYP2E1 [1] = target: T1, mtCYP2E1 (Rattus norvegicus, UniProt P05182); details: for Preferred Mechanism: rat liver mitochondria, best of six steady-state mechanisms (DynaFit)
mtCYP2E1 [2] = target: T1, mtCYP2E1; details: mitochondria 2 mg/mL, methanol only
erCYP2E1 [3] = target: T2, erCYP2E1 (Rattus norvegicus, UniProt P05182); assay: Steady-state kinetics of substrate oxidation by rat liver microsomes; details: for Preferred Mechanism: rat liver microsomes, best of six steady-state mechanisms (DynaFit)
T2 sequence (P05182 whole entry): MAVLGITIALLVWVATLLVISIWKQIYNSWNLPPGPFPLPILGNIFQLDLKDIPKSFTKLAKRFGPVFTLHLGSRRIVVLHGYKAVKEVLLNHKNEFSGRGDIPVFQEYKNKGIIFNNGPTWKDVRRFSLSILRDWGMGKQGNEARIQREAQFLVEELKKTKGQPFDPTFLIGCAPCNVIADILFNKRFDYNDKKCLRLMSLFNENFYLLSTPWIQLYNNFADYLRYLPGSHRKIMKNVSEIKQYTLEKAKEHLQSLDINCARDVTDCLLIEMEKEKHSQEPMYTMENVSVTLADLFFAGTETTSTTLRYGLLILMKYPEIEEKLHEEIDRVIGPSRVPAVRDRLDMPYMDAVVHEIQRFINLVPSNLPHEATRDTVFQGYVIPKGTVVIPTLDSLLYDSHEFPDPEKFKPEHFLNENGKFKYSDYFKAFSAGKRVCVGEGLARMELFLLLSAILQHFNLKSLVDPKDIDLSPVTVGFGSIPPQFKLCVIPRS

[4] = more recent studies of industrial workers; ref Bonanni et al. 2015; cited from earlier work
erCYP2E1 [5] = target: T2, erCYP2E1; details: microsomes 0.5 mg/mL, methanol only
erCYP2E1 [6] = target: T2, erCYP2E1; details: equal CYP2E1 levels in each compartment assumed
mtCYP2E1 [7] = target: T1, mtCYP2E1; details: low concentration (10 μM); equal CYP2E1 levels in each compartment assumed
[8] = rat liver microsomes 0.5 mg/mL, 1 mM NADPH, 37°C, pH 7.4

T1 sequence (P05182 2-493 limits assumed): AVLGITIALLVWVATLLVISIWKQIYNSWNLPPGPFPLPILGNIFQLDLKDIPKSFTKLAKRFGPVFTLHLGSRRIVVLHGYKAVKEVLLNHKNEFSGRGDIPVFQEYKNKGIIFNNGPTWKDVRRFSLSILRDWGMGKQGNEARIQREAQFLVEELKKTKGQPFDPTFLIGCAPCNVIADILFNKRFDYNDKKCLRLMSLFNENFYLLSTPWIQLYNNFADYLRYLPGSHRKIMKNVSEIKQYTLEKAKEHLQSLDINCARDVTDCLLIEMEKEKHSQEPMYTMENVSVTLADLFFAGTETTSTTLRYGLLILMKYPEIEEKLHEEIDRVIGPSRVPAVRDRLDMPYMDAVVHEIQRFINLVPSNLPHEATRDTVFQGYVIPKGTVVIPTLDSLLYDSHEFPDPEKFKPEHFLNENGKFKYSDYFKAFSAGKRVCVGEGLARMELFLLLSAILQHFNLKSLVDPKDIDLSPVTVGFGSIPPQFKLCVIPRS

| Structure (SMILES) | kcat (mtCYP2E1 [1]; rat liver mitochondria 2 mg/mL, 1 mM NADPH, 37°C, pH 7.4) | control (uninhibited) rate of substrate oxidation by mtCYP2E1 (mtCYP2E1 [2]; 50 μM substrate) | control (uninhibited) rate of substrate oxidation by mtCYP2E1 (mtCYP2E1 [2]; 500 μM substrate) | kcat (erCYP2E1 [3]; [8]) | styrene plasma levels [4] | control (uninhibited) rate of substrate oxidation by erCYP2E1 (erCYP2E1 [5]; 50 μM substrate) | control (uninhibited) rate of substrate oxidation by erCYP2E1 (erCYP2E1 [5]; 500 μM substrate) | Preferred Mechanism (mtCYP2E1 [1]) | turnover rate of mtCYP2E1 lower than microsomal enzyme (mtCYP2E1 [1]; versus erCYP2E1 after first substrate binding event) | percent of total metabolism through erCYP2E1 (erCYP2E1 [6]; high concentration (500 μM)) | percent of total metabolism through erCYP2E1 (erCYP2E1 [6]; low concentration (10 μM)) | binding of second molecule weaker than first binding event (erCYP2E1 [3]; erCYP2E1, rat liver microsomes) | rate of turnover of ternary complex higher than binary enzyme-substrate complex (erCYP2E1 [3]; erCYP2E1, rat liver microsomes) | Kss (erCYP2E1 [3]; [8]) | kcat2 (erCYP2E1 [3]; [8]) | Preferred Mechanism (erCYP2E1 [3]) | percent of total metabolism through mtCYP2E1 (mtCYP2E1 [7]) | turnover rate of mtCYP2E1 lower than erCYP2E1 (mtCYP2E1 [1]; mtCYP2E1 versus erCYP2E1) |
| --- | --- | --- | --- | --- | --- | --- | --- | --- | --- | --- | --- | --- | --- | --- | --- | --- | --- | --- |
| C=Cc1ccccc1 [styrene] | 100 (96 to 110) pmol/min/pmol CYP2E1 | 54 pmol/min/pmol CYP2E1 | 76 pmol/min/pmol CYP2E1 | 630 (580 to 690) pmol/min/pmol CYP2E1 | 0.06 µM | 310 pmol/min/mg | 390 pmol/min/mg | – | – | – | – | – | – | – | – | – | – | – |
| Nc1ccccc1 [aniline] | – | 28 pmol/min/pmol CYP2E1 | 58 pmol/min/pmol CYP2E1 | 500 (230 to 770) pmol/min/pmol CYP2E1 | – | 260 pmol/min/mg | 1000 pmol/min/mg | One-Site Model (Michaelis-Menten) | 10 fold | 95% | approximately 94% | 25 fold | two-fold | 54 (21 to 550) μM | 1000 (970 to 1300) pmol/min/pmol CYP2E1 | Two-Site Model, ES and ESS active | about 6% | – |
| O=[N+]([O-])c1ccc(O)cc1 [4-nitrophenol, reference compound] | – | 26 pmol/min/pmol CYP2E1 | 60 pmol/min/pmol CYP2E1 | – | – | 290 pmol/min/pmol CYP2E1 | 1080 pmol/min/pmol CYP2E1 | One-Site Model (Michaelis-Menten) | – | – | – | – | – | 2000 (1600 to 2600) μM | – | Two-Site Model, ES active only | – | nine-fold |
